Assay results as given in ChEMBL document CHEMBL3885881, “DrugMatrix”.

Species: Rattus norvegicus
Assay: DrugMatrix - Regimen: Daily Repeat
Assay type: toxicity, organism-based, Sprague-Dawley
Design: regimen Daily Repeat, gender Male, age 6-8 weeks
Conditions: in vivo, po, route oral GAVAGE, vehicle 100 % WATER; for ABSOLUTE BASOPHIL / ABSOLUTE EOSINOPHIL / ABSOLUTE LYMPHOCYTE / ABSOLUTE MONOCYTE / ABSOLUTE SEGMENTED NEUTROPHIL / BASOPHIL / EOSINOPHIL / ERYTHROCYTE COUNT / HEMATOCRIT / HEMOGLOBIN / LEUKOCYTE COUNT / LYMPHOCYTE / MEAN CORPUSCULAR HEMOGLOBIN / MEAN CORPUSCULAR HEMOGLOBIN CONCENTRATION / MEAN CORPUSCULAR VOLUME / MONOCYTE / NEUTROPHIL / NUCLEATED RED BLOOD CELLS / PLATELET COUNT: tissue Blood; for ALANINE AMINOTRANSFERASE / ALBUMIN / ALKALINE PHOSPHATASE / ASPARTATE AMINOTRANSFERASE / BLOOD UREA NITROGEN / CARBON DIOXIDE / CHLORIDE / CHOLESTEROL / CREATINE PHOSPHOKINASE / CREATININE / GLUCOSE / LACTATE DEHYDROGENASE / LIPASE / PHOSPHORUS / POTASSIUM / SODIUM / TOTAL BILIRUBIN / TOTAL PROTEIN / URIC ACID: tissue Plasma
[1] = 1 mg/kg, 120 h, dose level Low, time 5 day
[2] = 175 mg/kg, 72 h, dose level High, time 3 day
[3] = 175 mg/kg, 120 h, dose level High, time 5 day

CN1C2CCCC1CC(NC(=O)c1nn(C)c3ccccc13)C2 (centres undefined) [GRANISETRON]
ABSOLUTE BASOPHIL [1]: 0 CELLS/uL | ABSOLUTE EOSINOPHIL [1]: 0 CELLS/uL | ABSOLUTE LYMPHOCYTE [1]: 8153 CELLS/uL | ABSOLUTE MONOCYTE [1]: 97.67 CELLS/uL | ABSOLUTE SEGMENTED NEUTROPHIL [1]: 549.33 CELLS/uL | BASOPHIL [1]: 0% | EOSINOPHIL [1]: 0% | ERYTHROCYTE COUNT [1]: 5.09 x10E6/uL | HEMATOCRIT [1]: 31.63% | HEMOGLOBIN [1]: 12.5 G/DL | LEUKOCYTE COUNT [1]: 8.8 x10E3/uL | LYMPHOCYTE [1]: 92.67% | MEAN CORPUSCULAR HEMOGLOBIN [1]: 24.53 pg | MEAN CORPUSCULAR HEMOGLOBIN CONCENTRATION [1]: 39.6 G/DL | MEAN CORPUSCULAR VOLUME [1]: 62.03 fL | MONOCYTE [1]: 1% | NEUTROPHIL [1]: 6.33% | NUCLEATED RED BLOOD CELLS [1]: 0.67 /100WBC | PLATELET COUNT [1]: 832 x10E3/uL | ALANINE AMINOTRANSFERASE [1]: 51 u/L | ALBUMIN [1]: 4.2 G/DL | ALKALINE PHOSPHATASE [1]: 374 u/L | ASPARTATE AMINOTRANSFERASE [1]: 84.33 u/L | BLOOD UREA NITROGEN [1]: 16 mg/dL | CARBON DIOXIDE [1]: 31 mmol/L | CHLORIDE [1]: 101.67 MEQ/L | CHOLESTEROL [1]: 74.33 mg/dL | CREATINE PHOSPHOKINASE [1]: 215.67 u/L | CREATININE [1]: 0.16 mg/dL | GLUCOSE [1]: 149.33 mg/dL | LACTATE DEHYDROGENASE [1]: 154 u/L | LIPASE [1]: 9 u/L | PHOSPHORUS [1]: 10.23 mg/dL | POTASSIUM [1]: 5.82 MEQ/L | SODIUM [1]: 145 MEQ/L | TOTAL BILIRUBIN [1]: 0.23 mg/dL | TOTAL PROTEIN [1]: 6.23 G/DL | URIC ACID [1]: 0.7 mg/dL | ABSOLUTE BASOPHIL [2]: 0 CELLS/uL | ABSOLUTE EOSINOPHIL [2]: 0 CELLS/uL | ABSOLUTE LYMPHOCYTE [2]: 10622.67 CELLS/uL | ABSOLUTE MONOCYTE [2]: 19.67 CELLS/uL | ABSOLUTE SEGMENTED NEUTROPHIL [2]: 557.67 CELLS/uL | BASOPHIL [2]: 0% | EOSINOPHIL [2]: 0% | ERYTHROCYTE COUNT [2]: 5.65 x10E6/uL | HEMATOCRIT [2]: 35.33% | HEMOGLOBIN [2]: 13.77 G/DL | LEUKOCYTE COUNT [2]: 11.2 x10E3/uL | LYMPHOCYTE [2]: 93.67% | MEAN CORPUSCULAR HEMOGLOBIN [2]: 24.43 pg | MEAN CORPUSCULAR HEMOGLOBIN CONCENTRATION [2]: 38.93 G/DL | MEAN CORPUSCULAR VOLUME [2]: 62.63 fL | MONOCYTE [2]: 0.33% | NEUTROPHIL [2]: 6% | NUCLEATED RED BLOOD CELLS [2]: 0 /100WBC | PLATELET COUNT [2]: 1057.67 x10E3/uL | ALANINE AMINOTRANSFERASE [2]: 72.67 u/L | ALBUMIN [2]: 4 G/DL | ALKALINE PHOSPHATASE [2]: 502.33 u/L | ASPARTATE AMINOTRANSFERASE [2]: 95 u/L | BLOOD UREA NITROGEN [2]: 13 mg/dL | CARBON DIOXIDE [2]: 33 mmol/L | CHLORIDE [2]: 100 MEQ/L | CHOLESTEROL [2]: 75.67 mg/dL | CREATINE PHOSPHOKINASE [2]: 557.67 u/L | CREATININE [2]: 0.12 mg/dL | GLUCOSE [2]: 149.33 mg/dL | LACTATE DEHYDROGENASE [2]: 186 u/L | LIPASE [2]: 10 u/L | PHOSPHORUS [2]: 11.47 mg/dL | POTASSIUM [2]: 5.72 MEQ/L | SODIUM [2]: 145.1 MEQ/L | TOTAL BILIRUBIN [2]: 0.17 mg/dL | TOTAL PROTEIN [2]: 5.83 G/DL | URIC ACID [2]: 0.5 mg/dL | ABSOLUTE BASOPHIL [3]: 0 CELLS/uL | ABSOLUTE EOSINOPHIL [3]: 0 CELLS/uL | ABSOLUTE LYMPHOCYTE [3]: 7981.33 CELLS/uL | ABSOLUTE MONOCYTE [3]: 176.67 CELLS/uL | ABSOLUTE SEGMENTED NEUTROPHIL [3]: 675.33 CELLS/uL | BASOPHIL [3]: 0% | EOSINOPHIL [3]: 0% | ERYTHROCYTE COUNT [3]: 5.68 x10E6/uL | HEMATOCRIT [3]: 35.93% | HEMOGLOBIN [3]: 13.87 G/DL | LEUKOCYTE COUNT [3]: 8.83 x10E3/uL | LYMPHOCYTE [3]: 90% | MEAN CORPUSCULAR HEMOGLOBIN [3]: 24.47 pg | MEAN CORPUSCULAR HEMOGLOBIN CONCENTRATION [3]: 38.67 G/DL | MEAN CORPUSCULAR VOLUME [3]: 63.37 fL | MONOCYTE [3]: 2% | NEUTROPHIL [3]: 8% | NUCLEATED RED BLOOD CELLS [3]: 0 /100WBC | PLATELET COUNT [3]: 1308.33 x10E3/uL | ALANINE AMINOTRANSFERASE [3]: 86.67 u/L | ALBUMIN [3]: 4.03 G/DL | ALKALINE PHOSPHATASE [3]: 415.33 u/L | ASPARTATE AMINOTRANSFERASE [3]: 102 u/L | BLOOD UREA NITROGEN [3]: 16.67 mg/dL | CARBON DIOXIDE [3]: 31.33 mmol/L | CHLORIDE [3]: 100.33 MEQ/L | CHOLESTEROL [3]: 67.33 mg/dL | CREATINE PHOSPHOKINASE [3]: 224.33 u/L | CREATININE [3]: 0.19 mg/dL | GLUCOSE [3]: 146.33 mg/dL | LACTATE DEHYDROGENASE [3]: 136.33 u/L | LIPASE [3]: 11.67 u/L | PHOSPHORUS [3]: 11.97 mg/dL | POTASSIUM [3]: 5.51 MEQ/L | SODIUM [3]: 146.57 MEQ/L | TOTAL BILIRUBIN [3]: 0.17 mg/dL | TOTAL PROTEIN [3]: 5.6 G/DL | URIC ACID [3]: 0.57 mg/dL
